Results as given in patent US20240269139A1, “COMPOUNDS FOR TARGETED PROTEIN DEGRADATION OF KINASES” (DANA-FARBER CANCER INSTITUTE, INC., priority 2020, published 2024).
Where “and” joins values, the source holds several entries; their conditions need not be identical. Equal entries are not always repeated. Where two headings read alike, the source gives them in different places.

How the values were obtained:
Type in all cases: cell-based
[1] = biological target: T1, protein kinases (human kinome) (Homo sapiens, UniProt O75385); conditions: for logFC: ULK1 (O75385) protein abundance, degrader vs DMSO, down; for logFC ULK1: ULK1 O75385
T1 sequence (O75385 1-1050): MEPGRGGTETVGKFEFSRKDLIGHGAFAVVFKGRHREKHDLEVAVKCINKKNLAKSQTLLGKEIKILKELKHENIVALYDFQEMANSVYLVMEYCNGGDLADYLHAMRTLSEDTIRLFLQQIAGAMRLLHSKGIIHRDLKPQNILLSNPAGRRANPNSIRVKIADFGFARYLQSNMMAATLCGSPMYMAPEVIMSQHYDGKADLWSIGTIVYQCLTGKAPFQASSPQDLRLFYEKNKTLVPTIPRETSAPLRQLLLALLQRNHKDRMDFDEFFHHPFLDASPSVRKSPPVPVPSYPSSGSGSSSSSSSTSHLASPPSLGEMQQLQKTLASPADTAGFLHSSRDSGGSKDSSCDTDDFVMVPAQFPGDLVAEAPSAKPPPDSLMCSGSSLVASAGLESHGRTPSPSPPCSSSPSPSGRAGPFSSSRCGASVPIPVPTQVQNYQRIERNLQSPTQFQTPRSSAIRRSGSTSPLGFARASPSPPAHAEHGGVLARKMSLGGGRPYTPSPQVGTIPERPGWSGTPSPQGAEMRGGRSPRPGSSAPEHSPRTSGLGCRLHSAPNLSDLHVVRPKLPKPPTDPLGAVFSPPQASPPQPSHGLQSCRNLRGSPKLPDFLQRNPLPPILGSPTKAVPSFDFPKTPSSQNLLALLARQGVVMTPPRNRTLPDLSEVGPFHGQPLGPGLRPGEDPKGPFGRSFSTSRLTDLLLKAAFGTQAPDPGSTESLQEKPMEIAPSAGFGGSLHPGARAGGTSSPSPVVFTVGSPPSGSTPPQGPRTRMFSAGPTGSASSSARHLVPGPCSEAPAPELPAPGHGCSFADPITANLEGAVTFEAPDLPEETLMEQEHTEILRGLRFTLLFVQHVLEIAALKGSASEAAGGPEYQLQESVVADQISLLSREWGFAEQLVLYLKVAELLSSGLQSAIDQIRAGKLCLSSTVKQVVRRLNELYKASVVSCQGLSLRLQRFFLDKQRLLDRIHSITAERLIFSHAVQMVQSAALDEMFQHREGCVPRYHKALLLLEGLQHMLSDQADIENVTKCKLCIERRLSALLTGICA

[2] = biological target: protein kinases (human kinome) (Homo sapiens, UniProt Q9H0K1); conditions: for logFC of SIK2: Accession Q9H0K1; for logFC SIK2 (Q9H0K1): direction of change down
Chain of protein kinases (human kinome) (Homo sapiens, UniProt Q9H0K1) (Q9H0K1 whole entry): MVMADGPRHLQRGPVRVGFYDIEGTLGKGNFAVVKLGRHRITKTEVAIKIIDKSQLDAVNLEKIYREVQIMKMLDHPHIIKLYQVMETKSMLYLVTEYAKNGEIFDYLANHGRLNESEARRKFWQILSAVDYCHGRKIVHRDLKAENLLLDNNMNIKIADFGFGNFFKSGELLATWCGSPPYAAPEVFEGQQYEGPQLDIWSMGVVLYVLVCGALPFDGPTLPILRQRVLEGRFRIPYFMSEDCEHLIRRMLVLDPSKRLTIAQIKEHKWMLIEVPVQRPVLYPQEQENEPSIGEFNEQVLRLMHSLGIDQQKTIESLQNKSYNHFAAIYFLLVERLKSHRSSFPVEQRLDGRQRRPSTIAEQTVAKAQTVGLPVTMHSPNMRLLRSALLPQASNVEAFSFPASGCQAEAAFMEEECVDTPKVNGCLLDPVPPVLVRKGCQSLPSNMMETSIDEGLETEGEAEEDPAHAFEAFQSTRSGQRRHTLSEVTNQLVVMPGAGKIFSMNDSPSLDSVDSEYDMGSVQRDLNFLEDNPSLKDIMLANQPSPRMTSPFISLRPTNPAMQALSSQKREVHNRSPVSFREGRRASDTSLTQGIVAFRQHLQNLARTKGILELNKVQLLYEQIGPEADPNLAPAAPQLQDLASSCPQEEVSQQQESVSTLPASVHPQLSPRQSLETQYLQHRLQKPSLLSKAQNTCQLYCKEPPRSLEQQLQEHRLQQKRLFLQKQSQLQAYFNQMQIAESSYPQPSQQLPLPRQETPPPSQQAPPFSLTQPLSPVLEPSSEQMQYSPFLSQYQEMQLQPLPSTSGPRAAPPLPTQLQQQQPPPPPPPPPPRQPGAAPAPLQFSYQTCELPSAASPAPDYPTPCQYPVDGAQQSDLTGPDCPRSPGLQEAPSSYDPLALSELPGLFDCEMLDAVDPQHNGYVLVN

[3] = tested on: protein kinases (human kinome)
[4] = biological target: protein kinases (human kinome) (Homo sapiens, UniProt P30291); conditions: for logFC of WEE1: WEE1 P30291-1
Chain of protein kinases (human kinome) (Homo sapiens, UniProt P30291) (P30291 whole entry): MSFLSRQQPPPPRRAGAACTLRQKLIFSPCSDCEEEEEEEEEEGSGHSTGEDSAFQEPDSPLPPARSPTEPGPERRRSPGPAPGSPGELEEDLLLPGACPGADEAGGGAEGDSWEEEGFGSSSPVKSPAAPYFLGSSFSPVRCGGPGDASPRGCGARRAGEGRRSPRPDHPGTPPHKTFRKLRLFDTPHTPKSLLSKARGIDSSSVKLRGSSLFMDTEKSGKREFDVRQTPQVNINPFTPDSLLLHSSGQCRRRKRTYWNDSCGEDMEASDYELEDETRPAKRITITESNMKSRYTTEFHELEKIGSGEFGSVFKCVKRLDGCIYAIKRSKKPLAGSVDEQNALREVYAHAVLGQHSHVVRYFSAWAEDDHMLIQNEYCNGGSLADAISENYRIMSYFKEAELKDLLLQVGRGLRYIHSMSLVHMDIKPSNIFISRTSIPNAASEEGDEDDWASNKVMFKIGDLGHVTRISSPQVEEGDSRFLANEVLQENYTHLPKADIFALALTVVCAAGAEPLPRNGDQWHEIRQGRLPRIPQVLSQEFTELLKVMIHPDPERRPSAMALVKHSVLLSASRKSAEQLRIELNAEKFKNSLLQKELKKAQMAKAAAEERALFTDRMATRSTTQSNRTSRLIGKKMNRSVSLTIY

[5] = AURKB Q96GD4-5, experiment wp134

Compound: O=C(COc1cccc2c1C(=O)N(C1CCC(=O)NC1=O)C2=O)NCCCCCCCN1CCc2cc(Nc3ncc(C4CC4)c(NCCCNC(=O)C4CCC4)n3)ccc2C1 (centres unmarked) [BSJ.04.178]
- logFC [1]: −1.683
- logFC ULK1 ([1]; experiment wp134): −1.683
- logFC of SIK2 ([2]; experiment wp134): −1.351
- logFC SIK2 (Q9H0K1) ([2]; experiment wp134): −1.351
- logFC [3, 5]: −0.5074
- logFC AURKB [3, 5]: −0.5074
- logFC ([3]; CDK9 (P50750-2) protein abundance, degrader vs DMSO, down): −1.43
- logFC ([3]; MARK3 (P27448-5), experiment wp134): −0.4977
- logFC CDK9 (P50750-2) ([3]; experiment wp134): −1.43
- logFC MARK3 (P27448-5) ([3]; experiment wp134, direction of change down): −0.4977
- logFC of WEE1 ([4]; experiment wp134): −0.5688
- logFC WEE1 (P30291-1) ([4]; experiment wp134): −0.5688

Compound: Cc1ncsc1-c1ccc([C@H](C)NC(=O)[C@@H]2C[C@@H](O)CN2C(=O)[C@@H](NC(=O)CCCCCN2CCN(c3ccc(Nc4ncc5scc(-c6cccc(NS(C)(=O)=O)c6)c5n4)cc3)CC2)C(C)(C)C)cc1 [RSS0680, (2S,4R)-1-((S)-3,3-Dimethyl-2-(6-(4-(4-((7-(3-(methylsulfonamido)phenyl)thieno[3,2-d]pyrimidin-2-yl)amino)phenyl)piperazin-1-yl)hexanamido)butanoyl)-4-hydroxy-N—((S)-1-(4-(4-methylthiazol-5yl)phenyl)ethyl)pyrrolidine-2-carboxamide]
- logFC [1]: −0.4057 and −0.4996
- logFC ULK1 ([1]; experiment wp080): −0.4057
- logFC ULK1 ([1]; experiment wp117): −0.4996
- logFC of SIK2 ([2]; experiment wp080): −0.6986
- logFC of SIK2 ([2]; experiment wp117): −0.7184
- logFC SIK2 ([2]; SIK2 (Q9H0K1), experiment wp080, down): −0.6986
- logFC SIK2 (Q9H0K1) ([2]; experiment wp117): −0.7184
- kinases the bifunctional compound degrades ([3]; as stated for the structure in the embodiments): AAK1, CDK1, CDK16, CDK2, CDK4, CDK6, EIF2AK4, GAK. LATS1, LIMK2, MAPK6, MAPKAPK5, MARK2, MARK4, MKNK2, NEK9, RPS6KB1, SIK2, SNRK, STK17A, STK17B, STK35, and WEE1
- logFC CDK16 (Q00536-2) ([3]; experiment wp080): −1.002
- logFC CDK16 (Q00536-2) ([3]; experiment wp117): −0.9383
- Kinase hits ([3]; kinases significantly downregulated vs DMSO (fold change cutoff −1.25, P-value<0.01), ≤8 h, 0.1-5 μM degrader, 7 cell lines): AAK1, CDK1, CDK16, CDK2, CDKA, CDK6, EIF2AK4, GAK, LATS1, LIMK2, MAPK6, MAPKAPK5, MARK2, MARK4, MKNK2, NEK9, RPS6KB1, SIK2, SNRK, STK17A, STK17B. STK35, WEE1
- Total no. kinase hits ([3]; number of degraded kinases per library compound): 26
- logFC HK1 ([3]; protein HK1 (P19367-3), experiment wp080, down): −0.3696
- logFC of WEE1 ([4]; experiment wp080): −2.359
- logFC of WEE1 ([4]; experiment wp117): −1.85
- logFC WEE1 (P30291-1) ([4]; experiment wp080): −2.359
- logFC WEE1 (P30291-1) ([4]; experiment wp117): −1.85
